ChEMBL document CHEMBL4507258 (2021)

Legend:
[1] = target: Mitogen-activated protein kinase kinase kinase 2 (Homo sapiens) (UniProt Q9Y2U5); conditions: Compound concentration 1000.0 nM
[2] = target: Bone morphogenetic protein receptor type-1B (Homo sapiens) (UniProt O00238); conditions: Compound concentration 1000.0 nM
[3] = target: Serine/threonine-protein kinase WNK4 (Homo sapiens) (UniProt Q96J92); conditions: Compound concentration 1000.0 nM
[4] = target: Serine/threonine-protein kinase PRP4 homolog (Homo sapiens) (UniProt Q13523); conditions: Compound concentration 1000.0 nM
[5] = target: AP2-associated protein kinase 1 (Homo sapiens) (UniProt Q2M2I8); conditions: Compound concentration 1000.0 nM
[6] = target: Serine/threonine-protein kinase 4 (Homo sapiens) (UniProt Q13043); conditions: Compound concentration 1000.0 nM
Sequence of Serine/threonine-protein kinase 4 (Homo sapiens) (Q13043 whole entry): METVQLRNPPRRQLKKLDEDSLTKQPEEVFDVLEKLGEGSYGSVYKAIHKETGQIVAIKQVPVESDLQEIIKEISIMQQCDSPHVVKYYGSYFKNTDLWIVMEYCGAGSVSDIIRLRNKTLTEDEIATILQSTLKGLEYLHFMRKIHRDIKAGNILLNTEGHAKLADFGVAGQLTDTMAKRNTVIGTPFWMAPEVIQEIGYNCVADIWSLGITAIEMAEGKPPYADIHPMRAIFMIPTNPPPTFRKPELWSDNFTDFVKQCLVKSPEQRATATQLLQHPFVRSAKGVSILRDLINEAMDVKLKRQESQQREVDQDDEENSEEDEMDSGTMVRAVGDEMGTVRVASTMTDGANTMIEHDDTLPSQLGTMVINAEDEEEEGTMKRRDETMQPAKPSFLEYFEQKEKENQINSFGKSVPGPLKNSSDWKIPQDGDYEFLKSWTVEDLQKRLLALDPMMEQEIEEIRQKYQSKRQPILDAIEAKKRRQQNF

[7] = target: D(1A) dopamine receptor (Homo sapiens) (UniProt P21728); conditions: Compound concentration 10.0 uM
[8] = target: Serine/threonine-protein kinase 36 (Homo sapiens) (UniProt Q9NRP7); conditions: Compound concentration 1000.0 nM
Histamine H1 receptor = Histamine H1 receptor (Homo sapiens, UniProt P35367); conditions: Compound concentration 10.0 uM
[9] = target: Serine/threonine-protein kinase Nek6 (Homo sapiens) (UniProt Q9HC98); conditions: Compound concentration 1000.0 nM
[10] = target: Serine/threonine-protein kinase PknB (Mycobacterium tuberculosis) (UniProt P9WI81); conditions: Compound concentration 1000.0 nM
[11] = target: Receptor-interacting serine/threonine-protein kinase 2 (Homo sapiens) (UniProt O43353); conditions: Compound concentration 1000.0 nM
Sequence of Receptor-interacting serine/threonine-protein kinase 2 (Homo sapiens) (O43353 whole entry): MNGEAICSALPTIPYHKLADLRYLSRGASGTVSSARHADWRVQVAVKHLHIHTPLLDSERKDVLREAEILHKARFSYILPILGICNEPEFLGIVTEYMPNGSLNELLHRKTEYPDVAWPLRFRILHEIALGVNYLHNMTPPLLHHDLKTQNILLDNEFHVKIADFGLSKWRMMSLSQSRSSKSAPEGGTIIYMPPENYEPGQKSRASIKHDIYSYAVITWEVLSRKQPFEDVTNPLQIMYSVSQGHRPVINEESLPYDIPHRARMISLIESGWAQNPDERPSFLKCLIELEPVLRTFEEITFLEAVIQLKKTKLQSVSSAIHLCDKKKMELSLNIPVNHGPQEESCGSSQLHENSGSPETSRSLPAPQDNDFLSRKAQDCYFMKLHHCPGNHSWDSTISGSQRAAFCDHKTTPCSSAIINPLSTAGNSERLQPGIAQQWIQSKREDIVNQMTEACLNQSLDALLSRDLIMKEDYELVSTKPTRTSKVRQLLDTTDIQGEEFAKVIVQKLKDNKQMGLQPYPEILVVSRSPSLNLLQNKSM

[12] = target: SRSF protein kinase 1 (Homo sapiens) (UniProt Q96SB4); conditions: Compound concentration 1000.0 nM
[13] = test system: Epidermal growth factor receptor (Homo sapiens), P00533 [L858R]; conditions: Compound concentration 1000.0 nM
[14] = test system: Receptor-type tyrosine-protein kinase FLT3 (Homo sapiens), P36888 [UNDEFINED MUTATION]; conditions: Compound concentration 1000.0 nM
[15] = test system: Phosphatidylinositol 4,5-bisphosphate 3-kinase catalytic subunit alpha isoform (Homo sapiens), P42336 [H1047Y]; conditions: Compound concentration 1000.0 nM
[16] = target: Insulin receptor (Homo sapiens) (UniProt P06213); conditions: Compound concentration 1000.0 nM
Sequence of Insulin receptor (Homo sapiens) (P06213 28-758 limits assumed): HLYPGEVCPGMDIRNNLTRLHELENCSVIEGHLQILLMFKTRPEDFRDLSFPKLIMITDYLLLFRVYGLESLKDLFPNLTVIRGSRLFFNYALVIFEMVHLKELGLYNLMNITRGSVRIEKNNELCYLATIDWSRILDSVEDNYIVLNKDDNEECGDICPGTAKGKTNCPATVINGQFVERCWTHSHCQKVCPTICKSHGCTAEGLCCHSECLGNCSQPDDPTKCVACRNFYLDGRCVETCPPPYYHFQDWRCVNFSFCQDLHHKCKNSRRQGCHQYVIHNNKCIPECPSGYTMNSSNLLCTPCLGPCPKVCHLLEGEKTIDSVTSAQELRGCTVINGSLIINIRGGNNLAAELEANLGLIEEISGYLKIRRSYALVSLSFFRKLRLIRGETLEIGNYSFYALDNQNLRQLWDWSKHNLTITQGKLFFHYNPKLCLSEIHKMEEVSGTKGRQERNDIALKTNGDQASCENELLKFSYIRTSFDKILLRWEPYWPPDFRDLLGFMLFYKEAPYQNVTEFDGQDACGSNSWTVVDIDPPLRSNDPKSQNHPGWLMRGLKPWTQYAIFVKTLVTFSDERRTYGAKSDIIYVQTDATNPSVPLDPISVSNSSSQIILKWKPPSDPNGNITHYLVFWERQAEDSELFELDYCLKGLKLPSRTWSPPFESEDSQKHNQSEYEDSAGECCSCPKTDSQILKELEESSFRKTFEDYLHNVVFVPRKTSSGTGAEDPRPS
Sequence of Insulin receptor (Homo sapiens) (P06213 763-1382 limits assumed): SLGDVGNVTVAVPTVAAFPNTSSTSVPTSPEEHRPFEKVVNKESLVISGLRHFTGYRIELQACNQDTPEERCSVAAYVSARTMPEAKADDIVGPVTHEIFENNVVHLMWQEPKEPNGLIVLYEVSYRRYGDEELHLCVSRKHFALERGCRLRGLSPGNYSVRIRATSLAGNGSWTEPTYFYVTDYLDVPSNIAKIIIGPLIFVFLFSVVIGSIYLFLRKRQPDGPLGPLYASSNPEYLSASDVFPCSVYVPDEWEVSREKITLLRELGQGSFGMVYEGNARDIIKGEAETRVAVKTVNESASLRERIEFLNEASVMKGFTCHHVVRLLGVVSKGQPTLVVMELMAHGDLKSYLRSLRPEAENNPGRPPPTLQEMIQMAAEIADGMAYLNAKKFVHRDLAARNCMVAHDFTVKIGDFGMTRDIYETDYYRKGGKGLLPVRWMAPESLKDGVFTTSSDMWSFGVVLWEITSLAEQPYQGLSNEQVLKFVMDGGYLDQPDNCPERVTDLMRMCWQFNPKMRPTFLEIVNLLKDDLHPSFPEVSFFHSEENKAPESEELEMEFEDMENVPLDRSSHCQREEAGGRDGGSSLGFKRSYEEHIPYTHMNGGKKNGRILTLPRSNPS

[17] = target: Epithelial discoidin domain-containing receptor 1 (Homo sapiens) (UniProt Q08345); conditions: Compound concentration 1000.0 nM
[18] = target: Inhibitor of nuclear factor kappa-B kinase subunit beta (Homo sapiens) (UniProt O14920); conditions: Compound concentration 1000.0 nM
[19] = target: Cytoplasmic tyrosine-protein kinase BMX (Homo sapiens) (UniProt P51813); conditions: Compound concentration 1000.0 nM
[20] = target: Serine/threonine-protein kinase PLK1 (Homo sapiens) (UniProt P53350); conditions: Compound concentration 1000.0 nM
[21] = target: T1, 5-hydroxytryptamine receptor 3A (Homo sapiens) (UniProt P46098); conditions: Compound concentration 10.0 uM
T1 sequence (whole entry): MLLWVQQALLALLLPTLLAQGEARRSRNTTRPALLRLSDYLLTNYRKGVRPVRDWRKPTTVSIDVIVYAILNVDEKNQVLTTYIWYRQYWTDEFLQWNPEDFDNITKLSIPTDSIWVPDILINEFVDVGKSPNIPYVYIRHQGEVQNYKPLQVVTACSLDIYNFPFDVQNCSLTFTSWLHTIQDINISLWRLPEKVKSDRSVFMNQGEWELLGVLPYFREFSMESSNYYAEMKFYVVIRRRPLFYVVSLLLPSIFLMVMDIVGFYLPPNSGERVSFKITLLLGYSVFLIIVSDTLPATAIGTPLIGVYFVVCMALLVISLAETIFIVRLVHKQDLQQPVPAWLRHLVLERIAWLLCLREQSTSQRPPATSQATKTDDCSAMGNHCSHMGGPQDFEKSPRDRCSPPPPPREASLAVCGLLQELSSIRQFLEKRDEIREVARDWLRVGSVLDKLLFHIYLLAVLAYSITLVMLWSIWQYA

[22] = target: Cyclin-dependent kinase 2 (Homo sapiens) (UniProt P24941); conditions: Compound concentration 1000.0 nM
[23] = target: Serine/threonine-protein kinase PLK3 (Homo sapiens) (UniProt Q9H4B4); conditions: Compound concentration 1000.0 nM
[24] = target: Activated CDC42 kinase 1 (Homo sapiens) (UniProt Q07912); conditions: Compound concentration 1000.0 nM
[25] = target: Ephrin type-B receptor 4 (Homo sapiens) (UniProt P54760); conditions: Compound concentration 1000.0 nM
[26] = target: Dual specificity mitogen-activated protein kinase kinase 5 (Homo sapiens) (UniProt Q13163); conditions: Compound concentration 1000.0 nM
[27] = target: Tyrosine-protein kinase Tec (Homo sapiens) (UniProt P42680); conditions: Compound concentration 1000.0 nM
[28] = target: Atypical kinase COQ8A, mitochondrial (Homo sapiens) (UniProt Q8NI60); conditions: Compound concentration 1000.0 nM
[29] = target: Mast/stem cell growth factor receptor Kit (Homo sapiens) (UniProt P10721); conditions: Compound concentration 1000.0 nM
[30] = target: Mitogen-activated protein kinase kinase kinase 5 (Homo sapiens) (UniProt Q99683); conditions: Compound concentration 1000.0 nM
[31] = target: D(3) dopamine receptor (Homo sapiens) (UniProt P35462); conditions: Compound concentration 10.0 uM
[32] = target: Cyclin-dependent kinase 16 (Homo sapiens) (UniProt Q00536); conditions: Compound concentration 1000.0 nM
[33] = target: Interleukin-1 receptor-associated kinase 1 (Homo sapiens) (UniProt P51617); conditions: Compound concentration 1000.0 nM
Sequence of Interleukin-1 receptor-associated kinase 1 (Homo sapiens) (P51617 whole entry, looked up): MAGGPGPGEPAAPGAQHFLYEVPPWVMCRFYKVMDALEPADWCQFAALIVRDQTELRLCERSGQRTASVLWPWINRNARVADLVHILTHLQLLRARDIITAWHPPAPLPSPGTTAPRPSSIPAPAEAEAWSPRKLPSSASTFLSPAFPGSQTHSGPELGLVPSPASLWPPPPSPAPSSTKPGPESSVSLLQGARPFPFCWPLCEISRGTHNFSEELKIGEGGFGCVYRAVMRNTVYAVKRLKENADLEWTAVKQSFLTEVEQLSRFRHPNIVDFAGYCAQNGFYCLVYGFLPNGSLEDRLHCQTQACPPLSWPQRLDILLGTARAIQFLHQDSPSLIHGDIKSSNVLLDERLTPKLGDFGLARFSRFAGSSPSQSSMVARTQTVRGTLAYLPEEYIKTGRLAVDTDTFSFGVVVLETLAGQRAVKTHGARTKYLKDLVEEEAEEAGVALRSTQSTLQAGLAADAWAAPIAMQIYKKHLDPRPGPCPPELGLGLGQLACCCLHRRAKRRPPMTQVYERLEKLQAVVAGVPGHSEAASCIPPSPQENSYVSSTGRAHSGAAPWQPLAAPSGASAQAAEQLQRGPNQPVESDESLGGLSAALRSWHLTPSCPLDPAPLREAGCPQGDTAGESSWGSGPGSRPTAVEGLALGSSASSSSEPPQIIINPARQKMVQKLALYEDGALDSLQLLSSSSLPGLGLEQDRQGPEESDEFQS

[34] = target: Serine/threonine-protein kinase SIK1 (Homo sapiens, UniProt P57059); conditions: Compound concentration 1000.0 nM
[35] = target: Myosin light chain kinase family member 4 (Homo sapiens) (UniProt Q86YV6); conditions: Compound concentration 1000.0 nM
[36] = target: Mitogen-activated protein kinase kinase kinase 3 (Homo sapiens) (UniProt Q99759); conditions: Compound concentration 1000.0 nM
Sequence of Mitogen-activated protein kinase kinase kinase 3 (Homo sapiens) (Q99759 whole entry): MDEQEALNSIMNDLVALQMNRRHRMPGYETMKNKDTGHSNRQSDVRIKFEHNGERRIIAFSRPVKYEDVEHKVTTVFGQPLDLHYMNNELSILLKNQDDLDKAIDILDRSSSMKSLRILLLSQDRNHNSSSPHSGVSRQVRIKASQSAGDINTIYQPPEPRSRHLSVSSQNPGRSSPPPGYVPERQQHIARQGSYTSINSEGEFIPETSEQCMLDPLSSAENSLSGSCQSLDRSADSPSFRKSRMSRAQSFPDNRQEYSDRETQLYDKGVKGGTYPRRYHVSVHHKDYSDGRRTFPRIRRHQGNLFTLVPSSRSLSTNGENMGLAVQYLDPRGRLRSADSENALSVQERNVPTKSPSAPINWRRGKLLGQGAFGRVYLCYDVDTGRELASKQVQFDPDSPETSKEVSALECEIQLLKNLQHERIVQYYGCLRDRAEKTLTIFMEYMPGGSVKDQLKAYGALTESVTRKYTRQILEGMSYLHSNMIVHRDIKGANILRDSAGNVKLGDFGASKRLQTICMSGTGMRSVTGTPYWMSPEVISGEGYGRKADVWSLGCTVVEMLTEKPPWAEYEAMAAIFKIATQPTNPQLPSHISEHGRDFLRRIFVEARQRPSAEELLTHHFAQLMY

[37] = target: Serine/threonine-protein kinase DCLK3 (Homo sapiens) (UniProt Q9C098); conditions: Compound concentration 1000.0 nM
Sequence of Serine/threonine-protein kinase DCLK3 (Homo sapiens) (Q9C098 whole entry): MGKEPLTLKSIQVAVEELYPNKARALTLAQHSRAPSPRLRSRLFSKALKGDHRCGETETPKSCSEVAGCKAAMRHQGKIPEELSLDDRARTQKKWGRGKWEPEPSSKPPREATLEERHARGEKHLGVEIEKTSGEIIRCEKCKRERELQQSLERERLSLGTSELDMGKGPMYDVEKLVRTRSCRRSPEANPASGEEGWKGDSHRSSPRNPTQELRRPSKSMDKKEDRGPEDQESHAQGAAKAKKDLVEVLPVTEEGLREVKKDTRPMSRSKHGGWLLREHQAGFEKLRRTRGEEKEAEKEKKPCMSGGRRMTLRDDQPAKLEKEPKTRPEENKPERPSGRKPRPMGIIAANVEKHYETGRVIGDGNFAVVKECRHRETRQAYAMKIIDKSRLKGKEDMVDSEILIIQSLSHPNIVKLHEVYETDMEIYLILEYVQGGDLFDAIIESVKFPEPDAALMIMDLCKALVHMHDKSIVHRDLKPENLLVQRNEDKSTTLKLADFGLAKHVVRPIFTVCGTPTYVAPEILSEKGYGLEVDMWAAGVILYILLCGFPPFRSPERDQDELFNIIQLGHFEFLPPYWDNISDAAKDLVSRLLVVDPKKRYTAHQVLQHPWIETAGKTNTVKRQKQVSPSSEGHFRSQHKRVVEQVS

[38] = target: Homeodomain-interacting protein kinase 4 (Homo sapiens) (UniProt Q8NE63); conditions: Compound concentration 1000.0 nM
Sequence of Homeodomain-interacting protein kinase 4 (Homo sapiens) (Q8NE63 whole entry): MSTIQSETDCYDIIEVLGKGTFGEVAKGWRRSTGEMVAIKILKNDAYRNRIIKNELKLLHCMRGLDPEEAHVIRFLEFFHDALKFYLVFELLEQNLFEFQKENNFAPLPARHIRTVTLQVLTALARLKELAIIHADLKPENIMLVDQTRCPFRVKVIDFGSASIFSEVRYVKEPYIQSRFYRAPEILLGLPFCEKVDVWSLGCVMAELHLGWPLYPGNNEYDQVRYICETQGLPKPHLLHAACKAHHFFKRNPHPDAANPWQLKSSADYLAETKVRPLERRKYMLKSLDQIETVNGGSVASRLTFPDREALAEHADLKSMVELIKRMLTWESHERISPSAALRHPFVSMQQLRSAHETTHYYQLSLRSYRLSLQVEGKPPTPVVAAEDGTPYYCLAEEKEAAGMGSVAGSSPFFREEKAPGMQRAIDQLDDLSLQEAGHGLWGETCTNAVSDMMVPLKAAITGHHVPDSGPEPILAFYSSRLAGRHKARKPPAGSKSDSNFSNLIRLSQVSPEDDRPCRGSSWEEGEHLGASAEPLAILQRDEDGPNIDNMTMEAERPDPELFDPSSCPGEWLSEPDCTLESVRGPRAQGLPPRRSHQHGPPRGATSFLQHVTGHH

Compound	residual activity [1] [%]	residual activity [2] [%]	residual activity [3] [%]	residual activity [4] [%]	residual activity [5] [%]	residual activity [6] [%]	inhibition [7] [%]	residual activity [8] [%]	inhibition (Histamine H1 receptor) [%]	residual activity [9] [%]	residual activity [10] [%]	residual activity [11] [%]	residual activity [12] [%]	residual activity [13] [%]	residual activity [14] [%]	residual activity [15] [%]	residual activity [16] [%]	residual activity [17] [%]	residual activity [18] [%]	residual activity [19] [%]	other results
CCCCN(CCCC)C(=O)CN1C[C@@H](c2cc(OC)c3c(c2)OCO3)[C@H](C(=O)O)[C@H]1CC(C)(C)CCC [A-545]	84.6	100	100	99.3	100	94.4	16.6	75	47.4	98.1	92.8	100	62.5	100	99.1	92.6	89	100	100	84.6	residual activity [20]: 100%; inhibition [21]: 2.23%; residual activity [22]: 100%; residual activity [23]: 93.5%; residual activity [24]: 91.6%; residual activity [25]: 98.5%; residual activity [26]: 100%; residual activity [27]: 100%; residual activity [28]: 99.4%; residual activity [29]: 94.9%; residual activity [30]: 100%; inhibition [31]: 16.6%; residual activity [32]: 100%; residual activity [33]: 76.6%; residual activity [34]: 100%; residual activity [35]: 100%; residual activity [36]: 100%; residual activity [37]: 100%; residual activity [38]: 100%
CCCCN(CCCC)C(=O)CN1C[C@H](c2cc(OC)c3c(c2)OCO3)[C@@H](C(=O)O)[C@@H]1CC(C)(C)CCC [ABT-546]	81.2	59	97.9	100	100	100	4.66	100	53.6	100	85	100	100	99.7	90.6	100	75.8	95.5	81.5	100	residual activity [20]: 73.5%; inhibition [21]: 14.7%; residual activity [22]: 100%; residual activity [23]: 90.6%; residual activity [24]: 100%; residual activity [25]: 100%; residual activity [26]: 100%; residual activity [27]: 100%; residual activity [28]: 100%; residual activity [29]: 92.3%; residual activity [30]: 100%; inhibition [31]: 17.3%; residual activity [32]: 74.8%; residual activity [33]: 64.3%; residual activity [34]: 100%; residual activity [35]: 99.1%; residual activity [36]: 94.3%; residual activity [37]: 91.4%; residual activity [38]: 100%
